Data reported in patent publication US9227982B2 (NOVARTIS AG, priority 2011, dated 2016).

Key:
[1] = biological target: human tankyrase 1 PARP catalytic domain, TNKS1P (Homo sapiens (Human), UniProt O95271); assay: TNKS1 autoparsylation enzymatic assay (LC/MS detection of nicotinamide); type: biochemical; details: 20 nM enzyme, 250 μM β-NAD+, 60 min, read-out: TNKS1 AP IC50
Excerpt: (§1) The human tankyrase 1 PARP catalytic domain, TNKS1P, was cloned into a pDONR221 vector using the Invitrogen Gateway Technology. This entry clone was then subcloned into the destination vector pDEST20 to obtain the N-terminal Glutathione S-transferase (GST)-tagged fusion protein. GST-TNKS1P was then expressed in Sf21 cells using the Invitrogen baculovirus expression system (Invitrogen-Bac-to-Bac® Baculovirus Expression System, Version D). The protein was purified by a GSTrap column (GE Healthcare). The N-terminal GST-tagged tankyrase 2 protein PARP domain, TNKS2P, was cloned, expressed, and purified in a similar manner. Human PARP1 (Cat. No. 4668-100-01) and activated DNA (Cat. No. 4671-096-06) were purchased from Trevigen, Inc. PARP2 (Cat. No. ALX-201-064-C020) was purchased from Alexis Biochemical.
The % Inhibition was calculated as: (Control−Sample)/(Control−Background)*100. “Control” is the average value of 8 wells without compound; and “Background” is the average of 8 wells mixed with 5× quenching solution measured prior to initiation of the reaction.

Axin2 protein = assay: Cellular ELISA assay of Axin2 protein stabilization in SW480 cells; type: cell-based; details: Homo sapiens, 24 hrs treatment, read-out: Axin AC50
Method: Cellular ELISA Assay to Determine Compound Effect on Stabilizing the Axin2 Protein
Compound activity in stabilizing the Axin2 protein was measured by Sandwich Enzyme-Linked Immuosorbent (ELISA) assay in the colorectal cell line SW480. 30,000 SW480 cells were seeded per well in 96-well plate and incubated overnight prior to compound treatment. Cells were then treated with compounds in 6-point dilution starting at 10 μM for 24 hrs. Cells were then washed with 100 μL of cold Phosphate Buffer Saline (PBS), and lysed in 125 μl of cold 1× lysis buffer (Cell Signaling Technology, 9803) supplemented with Protease inhibitor (Roche, 11836170) and Phosphatase inhibitors (Sigma, P2850, P5726). For the ELISA assay, anti Axin-2 capture antibody (Strategic Diagnostics) antibody was diluted to a concentration of 1 μg/ml (1:1000) in Carbonate Coating buffer, pH 9.2 (Sigma, C3041-50CAP). 100μ of the diluted anti Axin-2 capture antibody per well was then used to coat the 96-well ELISA plate (Thermo Electron Corp., MicroLite 1 flat bottom plate #7571) overnight at 4° C. Plates were then washed three times with 300 of wash solution, PBST20 (PBS+0.05% Tween), and blocked with 300 μl/well 1% BSA/PBS (BSA, Millipore Probumin #82-045-1) for 1.5 hours at room temperature while shaking gently. After blocking, plates were then washed three times with 300 of wash solution. 100 μL of prepared SW480 cell lysate was then added to each well and incubated at room temperature for 2 hours while shaking gently. After washing, 100 μL of Biotinylated anti-Axin2 antibody (CST, 2151) was added to each well and incubated room temperature for 2 hours. 100 μL of Streptavidin-HRP (R&D systems, DY998) diluted 1:200 in 1% BSA/PBS was then added in each well and incubate for 30 mins at R/T in the dark.

[2] = tested on: Non-small lung cancer ABC-1 cells; assay: Cellular proliferation assay (CellTiter-Glo) in ABC-1 cells; type: cell-based; details: Homo sapiens, 72 h, 3 days of compound treatment
Method: Cellular Proliferation Assay to Determine Compound Inhibition of Cancer Cell Growth
Non-small lung cancer ABC-1 cells were plated at 5000 cells per well in 96-well plates and treated with 8 serial compound dilutions starting from 10 μM as the highest concentration. Viable cells were measured after 3 days of compound treatment using the CellTiter-Glo assay (Promega, G7570). Assay was performed following the manufacture protocol.

[3] = tested on: Herpes Simplex Virus (HSV); details: cited from earlier work
PARP2 = PARP2 (Mus musculus (Mouse), UniProt O88554); assay: PARP2 autoparsylation enzymatic assay (LC/MS detection of nicotinamide); type: biochemical; details: 20 nM enzyme, 250 μM β-NAD+, 60 min
Excerpt: as §1, with “manner.” for “manner. Human PARP1 (Cat. No. 4668-100-01) and activated DNA (Cat. No. 4671-096-06) were purchased from Trevigen, Inc. PARP2 (Cat. No. ALX-201-064-C020) was purchased from Alexis Biochemical.”
The autoparsylation activity of the TNKS 1/2 or PARP1/2 enzymes was measured by the liquid chromatography-mass spectrometry (LC/MS) detection of nicotinamide as readout. Compound activity in inhibiting the TNKS and PARP autoparsylation was evaluated by IC50 measurements. […] For the background control wells, 10 μL of the 5× quenching solution per well was added prior to the addition of β-NAD^+. The % Inhibition was calculated as: (Control−Sample)/(Control−Background)*100.

Chain of human tankyrase 1 PARP catalytic domain, TNKS1P (O95271 1112-1317): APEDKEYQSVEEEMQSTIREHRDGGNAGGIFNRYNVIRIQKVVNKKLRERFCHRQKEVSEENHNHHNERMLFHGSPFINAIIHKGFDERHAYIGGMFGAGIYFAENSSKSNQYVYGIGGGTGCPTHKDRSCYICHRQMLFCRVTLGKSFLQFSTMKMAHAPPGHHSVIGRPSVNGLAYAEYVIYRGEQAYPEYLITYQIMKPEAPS
Chain of PARP2 (O88554 whole entry): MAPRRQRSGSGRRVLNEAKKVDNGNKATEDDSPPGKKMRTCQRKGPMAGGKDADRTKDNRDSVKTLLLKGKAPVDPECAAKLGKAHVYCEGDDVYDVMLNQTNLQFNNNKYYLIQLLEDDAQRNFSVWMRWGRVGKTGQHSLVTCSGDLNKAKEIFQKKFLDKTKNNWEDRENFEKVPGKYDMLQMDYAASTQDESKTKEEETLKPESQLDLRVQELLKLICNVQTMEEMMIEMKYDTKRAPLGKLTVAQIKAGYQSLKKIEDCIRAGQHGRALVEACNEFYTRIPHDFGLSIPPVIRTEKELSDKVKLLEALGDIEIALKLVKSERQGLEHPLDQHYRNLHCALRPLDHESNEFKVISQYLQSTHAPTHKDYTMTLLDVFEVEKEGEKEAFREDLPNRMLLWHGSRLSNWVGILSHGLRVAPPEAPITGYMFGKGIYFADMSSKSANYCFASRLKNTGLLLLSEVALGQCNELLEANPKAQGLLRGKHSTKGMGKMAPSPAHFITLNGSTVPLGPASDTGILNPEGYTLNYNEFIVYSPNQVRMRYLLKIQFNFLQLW

O=C(CCc1cccc(O)c1)N(Cc1nc2c(c(=O)[nH]1)COCC2)Cc1cccs1 [Example 7, 3-(3-Hydroxy-phenyl)-N-(4-oxo-3,5,7,8-tetrahydro-4H-pyrano[4,3-d]pyrimidin-2-ylmethyl)-N-thiophen-2-ylmethyl-propionamide]
IC50 [1]: 1.02 ± 0.003 µM
AC50 (Axin2 protein): > 10 µM
IC50 [2]: > 10 µM

Oc1nc(-c2ccc(C(F)(F)F)cc2)nc2c1CSCC2 [XAV939]
HSV viral growth [3]: decreased viral growth
HSV viral protein expression [3]: suppressed HSV viral protein expression

O=C(CCc1ccccc1F)N(Cc1nc2c(c(=O)[nH]1)COCC2)Cc1cccs1 [Example 4, 3-(2-Fluoro-phenyl)-N-(4-oxo-3,5,7,8-tetrahydro-4H-pyrano[4,3-d]pyrimidin-2-ylmethyl)-N-thiophen-2-ylmethyl-propionamide]
IC50 [1]: 0.271 ± 0.045 µM
AC50 (Axin2 protein): 4.1 ± 2.1 µM
IC50 [2]: 8.74 µM

O=C(CCc1ccccc1)N(Cc1nc2c(c(=O)[nH]1)COCC2)Cc1cccs1 [Example 1]
IC50 [1]: 1.15 ± 0.02 µM
AC50 (Axin2 protein): > 10 µM
IC50 [2]: > 10 µM

O=C(CCc1ccc(F)cc1)N(Cc1nc2c(c(=O)[nH]1)COCC2)Cc1cccs1 [Example 2, 3-(4-Fluoro-phenyl)-N-(4-oxo-3,5,7,8-tetrahydro-4H-pyrano[4,3-d]pyrimidin-2-ylmethyl)-N-thiophen-2-ylmethyl-propionamide]
IC50 [1]: 0.299 ± 0.026 µM
AC50 (Axin2 protein): 8.2 ± 0.3 µM
IC50 [2]: > 10 µM

N-((4-0xo-4,5,7,8-tetrahydro-3H-pyrano[4,3-d]pyrimidin-2-yl)methyl)-3-phenyl-N-(thiophen-3-ylmethyl)propanamide [Example 18]
IC50 (PARP2): 10.4 ± 0.8 µM
IC50 [1]: 5.17 ± 0.46 µM
